A short description of test [1]: Inhibition of Saccharomyces cerevisiae alpha-glucosidase using pNPG as substrate.
Test [2] concerns Saccharomyces cerevisiae. Nature of the test: Potency index, ratio of resveratrol IC50 to test compound IC50 for inhibition of Saccharomyces cerevisiae alpha-glucosidase using pNPG as substrate.
Test [3] in a line: Non-competitive inhibition of Saccharomyces cerevisiae alpha-glucosidase assessed as inhibition constant by secondary re-plot of Lineweaver-burk plot analysis.
For test [4], the system named is Saccharomyces cerevisiae. Nature of the test: Non-competitive inhibition of Saccharomyces cerevisiae alpha-glucosidase assessed as decrease in Vmax without affecting Km using varying levels of p-NPG as substrate by Lineweaver-burk plot analysis.

Active and inactive are the calls of the source. The calls are words filed in the database; no cut-off is given here. A value given as a limit tells only on which side of the number the result lay.

In turn, `Cc1ccccc1CN1C(=O)/C(=N\Nc2nncs2)c2ccccc21` returned an IC50 in test [1] of 25.1 µM. On the same count and under the same terms, the result for `O=C1/C(=N\Nc2nncs2)c2ccccc2N1Cc1ccccc1` reads 21 µM. As for `O=C1/C(=N\Nc2nncs2)c2ccccc2N1Cc1cccc(Cl)c1`, the IC50 in test [1] stood at 7.25 µM. `Oc1ccc(/C=C/c2cc(O)cc(O)c2)cc1` [RESVERATROL]: the IC50 in test [1] came to 22 µM.

For the molecule `N#Cc1cccc(CN2C(=O)/C(=N\Nc3nncs3)c3ccccc32)c1`, the half-inhibitory concentration (IC50) in test [1] was greater than 200 µM.

`Cc1cccc(CN2C(=O)/C(=N\Nc3nncs3)c3ccccc32)c1` came in with a 50% inhibitory concentration (IC50) in test [1] of 32.3 µM.

Regarding `N#Cc1ccccc1CN1C(=O)/C(=N\Nc2nncs2)c2ccccc21`, the IC50 in test [1] was greater than 200 µM. In the case of `O=C1/C(=N\Nc2nncs2)c2ccccc2N1Cc1ccccc1F`, the IC50 in test [1] was determined as 18.4 µM. Same read-out and setting: in the case of `O=C1/C(=N\Nc2nncs2)c2ccccc2N1Cc1ccccc1Cl` it was 8.5 µM; in that of `Cc1ccc(CN2C(=O)/C(=N\Nc3nncs3)c3ccccc32)cc1`, 29.2 µM; in that of `COc1ccc(CN2C(=O)/C(=N\Nc3nncs3)c3ccccc32)cc1`, 46 µM. With `O=C1/C(=N\Nc2nncs2)c2ccccc2N1Cc1ccc(Cl)cc1`, the Ratio IC50 in the test with Saccharomyces cerevisiae [2] was determined as 7. Also, the half-inhibitory concentration (IC50) in test [1] came to 3.12 µM. Besides, the inhibition constant Ki in test [3] worked out at 2760 nM. For the same molecule, in the test with Saccharomyces cerevisiae [4], the inhibition result was “Active”. As to `O=C1/C(=N\Nc2nncs2)c2ccccc2N1Cc1ccccc1Br`, the IC50 in test [1] is 13.2 µM. As for `COc1cccc(CN2C(=O)/C(=N\Nc3nncs3)c3ccccc32)c1`, the half-maximal inhibitory concentration (IC50) in test [1] amounted to 42.3 µM.

Values taken from ChEMBL document CHEMBL5053540, “Synthesis and biological evaluation of isatin derivatives containing 1,3,4-thiadiazole as potent a-glucosidase inhibitors” (Bioorg Med Chem Lett, 2021).
